Measured values as given in patent US20180289708A1 (priority 2015, published 2018).
Where two headings read alike, the source gives them in different places.

Assays:
[1] = test system: subjects with treatment-refractory insomnia; assay: Dipyridamole in combination with melatonin for insomnia; format: in vivo, human
Method: The melatonin dose ranged between 0.25 mg and 10 mg per pill.

[2] = test system: subjects with xerostomia; assay: Xerostomia treatment; format: in vivo, human; conditions: Subject 1 (person twelve), 2 mg
Method: Subject 1 (person twelve) and Subject 2 (person three) were treated with varying doses (1, 2, 3, 4, 5 and 10 mg) taken in the morning or evening, for periods of 2 weeks for each dose then continued on optimal dose for 15 months in total.

[3] = test system: subject with prostate cancer; assay: Prostate cancer treatment; format: in vivo, human; conditions: person four, daily dose of 2 mg, 3 month period; from 19.1
Method: person four was treated with 2 mg taken in the afternoon or evening and followed for 3 months.

[4] = test system: subject with androgenetic alopecia; assay: Treatment of androgenetic alopecia; format: in vivo, human; conditions: person, 14 months in total
Method: A person was treated with varying doses (2 and 4 mg) taken in the morning or evening, for periods of 2 weeks for each dose and continued with the optimal dose for 14 months in total.

[5] = test system: subjects with CLL; assay: Treatment of chronic lymphocytic leukemia; format: in vivo, human; conditions: Subject 1 (person eleven), 2 mg, one month; from 25,000 (rising by 10%/month)
[6] = test system: subjects with frequent viral infections (with upper respiratory symptoms); assay: Prevention and treatment of viral disease; format: in vivo, human
Method: Subject 1 (person eight), Subject 2 (person two), Subject 3, and Subject 4 were treated with varying doses (2, 5 and 10 mg) taken at any time during the day, for periods of 2 weeks for each dose, and thereafter continuously for up to 2 years.

[7] = cited from earlier work
[8] = test system: subjects with keratoconjunctivitis sicca; assay: Keratoconjunctivitis sicca treatment with low dose oral dipyridamole; format: in vivo, human; conditions: Subject 1 (person thirteen), 2 mg
Method: Each of the three subjects was unresponsive to cyclosporine eye drops or to lubricating drops which are the conventional treatments.
Subject 1 (person thirteen), Subject 2 (person twelve) and Subject 3 (person twelve) were treated with varying doses (2, 5 and 10 mg) taken before sleep or in the afternoon/evening hours, for initial periods of up to 2 weeks for each dose to establish optimal dosing, and followed for up to 12 months in total.

[9] = test system: subjects with chronic rheumatic pain; assay: Treatment of chronic rheumatic or fibromyalgia pain; format: in vivo, human
Method: Subject 1 was treated with 2 mg taken once daily with the first daily dose of oxycodone. Subject 2 (person twelve) was treated with 2 mg or 5 mg taken once daily, in conjunction with oxycodone. Subject 3 (person five) was treated with 2 mg, 5 mg or 10 mg taken once daily with PERCOCET.

[10] = test system: subject with cancer-related bone pain; assay: Treatment of cancer-related bone pain; format: in vivo, human; conditions: person, 2 mg in the early evening
Method: A person was treated with 2 mg taken in the early evening hours. The subject reported resolution of bone pain related to metastatic prostate cancer to the cervical spine within 4 days. The subject was previously dependent on the daily use of opiate pain medications for the past 6 months.

[11] = test system: subjects with erectile dysfunction; assay: Erectile dysfunction treatment with low dose oral dipyridamole; format: in vivo, human
Text: Some subjects had either failed or could not tolerate conventional treatments.

[12] = Solubility of dipyridamole in propylene glycol / water; format: physicochemical
Text: (§1) Solubility of a compound is known to increase absorption and efficacy. In other exemplary embodiments of the invention, liquid formulations are provided in gel-caps.

[13] = test system: human subjects with intractable insomnia; assay: Insomnia treatment with low dose oral dipyridamole; format: in vivo
[14] = Storage stability of dipyridamole dissolved in propylene glycol; format: physicochemical; conditions: 1 year of storage at room temperature
Text: as §1

[15] = test system: subject with recurrent, non-streptococcal, non-specific sore throat; assay: Treatment of non-specific recurrent sore throat; format: in vivo, human; conditions: person, 29 kg, 1 mg/day before sleep, followed 11 months
Method: A person was treated with 1 mg taken before sleep and followed for 11 months in total. […] One mg dose was given based on a weight of 29 kg.

[16] = IV or oral 20-50 mg, followed up to 60 hours

COc1ccc2[nH]cc(CCNC(C)=O)c2c1 [melatonin]
prior response of insomnia to melatonin alone ([1]; six subjects with treatment-refractory insomnia): unresponsive

OCCN(CCO)c1nc(N2CCCCC2)c2nc(N(CCO)CCO)nc(N3CCCCC3)c2n1 [dipyridamole]
duration of occasionally recurring symptoms [2]: 2 to 3 h | reduction in severity of occasionally recurring symptoms ([2]; recurrence once every few weeks): 70% | PSA (Prostate Specific Antigen) after treatment [3]: 14 | optimal dose for expansion of hairline, thicker hair, decreased hair loss and increased growth of chest and abdominal hair [4]: 4 mg | prior response of insomnia to low dose dipyridamole alone ([1]; six subjects, 1 or 2 mg daily): somewhat responsive | white blood cell count after treatment [5]: 18,000 | incidence of viral infections under treatment ([6]; Subject 3, 2 mg once daily, previously 5-6 times yearly): 1-2 times yearly | time to resolution of infection symptoms ([6]; Subject 3, 2 mg twice daily, previously 7-10 days): 1 to 2 days | effect of 10 mg dose on viral infection ([6]; Subject 3, 10 mg, one occasion): failed to deliver the same benefit as the 2 mg dose | optimal dose for reducing incidence of viral infections ([6]; Subject 3, once daily): 2 mg | recurrence of infections ([6]; Subject 4, 2 mg daily for 10 months, previously every 3-4 months): without any recurrence of infections | time to complete relief of symptoms of severe viral infection ([6]; Subject 4, 2 mg twice daily, upper respiratory symptoms plus viral conjunctivitis): 1 to 2 days | peak plasma concentration at steady state ([7]; 75 mg q.i.d.): 1.54 µg/mL | trough plasma concentration at steady state ([7]; 75 mg q.i.d.): 0.269 µg/mL | geometric mean peak plasma concentration at steady state ([7]; 75 mg t.d.s.): 1.86 µg/mL | geometric mean trough plasma concentration at steady state ([7]; 75 mg t.d.s.): 0.13 µg/mL | peak plasma concentration at steady state ([7]; 100 mg q.i.d.): 2.36 µg/mL | trough plasma concentration at steady state ([7]; 100 mg q.i.d.): 0.432 µg/mL | half-life, first phase of tri-exponential plasma decline ([7]; IV only, 20-50 mg, followed up to 60 hours): 5 min | half-life, second phase of tri-exponential plasma decline [7, 16]: 53 min | half-life, third phase of tri-exponential plasma decline [7, 16]: 600 to 720 min | time to peak plasma levels ([7]; humans, following oral administration): 1 to 3 h | distribution half-life ([7]; humans, intravenous (IV) administration): about 25 minutes | distribution half-life ([7]; humans, oral administration): about 3 hours | dose range in which dose linearity was demonstrated ([7]; single dose administration): 25 to 150 mg | outcome on dry eye symptoms [8]: complete relief of dry eye symptoms | outcome on pain related to chronic fibromyalgia ([9]; Subject 1, 2 mg once daily added to oxycodone): complete relief of pain | time to complete weaning off oxycodone while maintaining pain relief ([9]; Subject 2 (person twelve), 2 mg): ≤ 3 months | pain relief at 10 mg ([9]; Subject 2 (person twelve), 10 mg instead of 2 mg): negligible pain relief | duration of low dose dipyridamole use after which Percocet was weaned off ([9]; Subject 3 (person five), 2 mg): 2 months | time to resolution of bone pain related to metastatic prostate cancer to the cervical spine [10]: ≤ 4 days | optimal dose for complete restoration of erectile function ([11]; Subject 1, daily at night): 2 mg | time to restoration of erectile function ([11]; Subject 3 (person seven), 2 mg): ≤ 10 days | effect on erectile function at 10 mg daily ([11]; Subject 3 (person seven), 10 mg daily): the beneficial effect was lost | time to resolution of erectile dysfunction ([11]; Subject 4, 2 mg): ≤ 5 days | time to resolution of erectile dysfunction ([11]; Subject 5, 2 mg): ≤ 2 weeks | effect of 10 mg compared with 5 mg ([11]; Subject 5, 10 mg): did not produce the same benefit as 5 mg | effect when taken with food ([11]; Subject 5, taken with food): 2 mg was not that effective but 5 mg was | solubility in propylene glycol ([12]; propylene glycol): ≥ 10 mg per ml | solubility in propylene glycol ([12]; pure propylene glycol, dissolved at 5, 10 and 20 mg/mL): surprisingly soluble in propylene glycol | solubility in water ([12]; water): difficult to dissolve in water | effect on insomnia at 10 mg or more (conclusion of example) ([13]; 10 mg or more, 4 subjects): little or no effect | benefit on insomnia at 10 mg ([13]; Subject 1, 10 mg): negligible benefit compared to lower doses | optimal dose for ensuring an excellent night's sleep ([13]; Subject 1, oral, before sleep): 2 mg | duration of undisturbed sleep ([13]; Subject 2 (person nine), 2 mg): 6-8 hours per night | optimal dose for ensuring an excellent, undisturbed sleep ([13]; Subject 2 (person nine), oral, before sleep): 2 mg | potency after storage [14]: maintained its potency | outcome on recurrent sore throat [15]: complete resolution of recurrent sore throat
